# Tests used:
# [1] = system: Mycobacterium smegmatis ATCC607; experiment: Antimicrobial spectrum, agar-dilution method; type: cell-based
# E. coli NIHJ SMf = experiment: Antimicrobial spectrum, agar-dilution method; type: cell-based
# E. coli CF17 = experiment: Antimicrobial spectrum, agar-dilution method; type: cell-based
# Citrobacter = experiment: Antimicrobial spectrum, agar-dilution method; type: cell-based
# Salmonella paratyphi B = conditions: agar-dilution
# E. coli CF41 = experiment: Antimicrobial spectrum, agar-dilution method; type: cell-based
# [2] = system: Bacillus subtilis PCI 219; experiment: Antimicrobial spectrum, agar-dilution method; type: cell-based; conditions: Bacillus subtilis PCI 219, agar-dilution
# Titration (in water) = type: physicochemical
# [3] = system: Salmonella typhimurium IFO12529; experiment: Antimicrobial spectrum, agar-dilution method; type: cell-based
# Shigella flexneri = experiment: Antimicrobial spectrum, agar-dilution method; type: cell-based
# Solubility in solvents = type: physicochemical
# Description: (h) Solubility in solvents:
# [4] = system: Pseudomonas aeruginosa IFO12689; experiment: Antimicrobial spectrum, agar-dilution method; type: cell-based
# [5] = system: Proteus vulgaris OX19 ATCC6898; experiment: Antimicrobial spectrum, agar-dilution method; type: cell-based
# [6] = system: Pseudomonas aeruginosa P2; experiment: Antimicrobial spectrum, agar-dilution method; type: cell-based
# [7] = system: Bordetella bronchiseptica Aichi 202; experiment: Antimicrobial spectrum, agar-dilution method; type: cell-based; conditions: Bordetella bronchiseptica Aichi 202, agar-dilution
# E. coli K-12 ML1630 = experiment: Antimicrobial spectrum, agar-dilution method; type: cell-based; conditions: E. coli K-12 ML1630, agar-dilution
# E. coli NIHJ STf = experiment: Antimicrobial spectrum, agar-dilution method; type: cell-based
# rats = experiment: Acute toxicity, oral, rats; conditions: 500 mg/kg administered to rats orally (65-700 times the effective dosage)
# [8] = system: Staphylococcus aureus FDA209P; experiment: Antimicrobial spectrum, agar-dilution method; type: cell-based
# Candida albicans Yu1200 = experiment: Antimicrobial spectrum, agar-dilution method; type: cell-based
# [9] = system: Serratia marcescens IFO12648; experiment: Antimicrobial spectrum, agar-dilution method; type: cell-based
# [10] = system: hyperglycemia following an oral load of sucrose; experiment: Hyperglycemia following an oral load of sucrose; type: in vivo; conditions: dose/kg 30.0 mg; 20 min. after 3.2 g sucrose/kg
# Procedure: (§4) [Plasma Glucose and insulin 20 min. after carbohydrate ± Trestatin (1.
# g wheat starch/kg or 3.2 g sucrose/kg)]
# Sarcina lutea ATCC 9341 = experiment: Antimicrobial spectrum, agar-dilution method; type: cell-based; conditions: Sarcina lutea ATCC 9341, agar-dilution
# E. coli NIHJ = experiment: Antimicrobial spectrum, agar-dilution method; type: cell-based
# [11] = system: Staphylococcus aureus MS3937; experiment: Antimicrobial spectrum, agar-dilution method; type: cell-based
# [12] = system: Pseudomonas aeruginosa A3; experiment: Antimicrobial spectrum, agar-dilution method; type: cell-based
# Proteus rettgeri = experiment: Antimicrobial spectrum, agar-dilution method; type: cell-based
# [13] = system: hyperglycemia induced by cooked rice starch; experiment: Inhibition of hyperglycemia induced by cooked rice starch, rats; type: in vivo; conditions: p.o., dose causing after 20 minutes a 20 percent decrease of hyperglycemia, 2 g/kg cooked rice starch
# Procedure: (§1) **ED20 is defined as the dose causing after 20 minutes a 20 percent
# (§2) decrease of hyperglycemia induced by oral administration of 2 g/kg body
# (§3) weight cooked rice starch.
# [14] = system: Klebsiella pneumoniae PCI602; experiment: Antimicrobial spectrum, agar-dilution method; type: cell-based
# [15] = molecular target: T1, porcine pancreatic α-amylase (Sus scrofa, UniProt P00690); experiment: Porcine pancreatic α-amylase inhibitory activity (Bernfeld assay); type: biochemical; conditions: IU = amount giving 50% inhibition of 2 units porcine pancreatic α-amylase, pH 6.9, 37° C.
# T1 sequence (P00690 16-511): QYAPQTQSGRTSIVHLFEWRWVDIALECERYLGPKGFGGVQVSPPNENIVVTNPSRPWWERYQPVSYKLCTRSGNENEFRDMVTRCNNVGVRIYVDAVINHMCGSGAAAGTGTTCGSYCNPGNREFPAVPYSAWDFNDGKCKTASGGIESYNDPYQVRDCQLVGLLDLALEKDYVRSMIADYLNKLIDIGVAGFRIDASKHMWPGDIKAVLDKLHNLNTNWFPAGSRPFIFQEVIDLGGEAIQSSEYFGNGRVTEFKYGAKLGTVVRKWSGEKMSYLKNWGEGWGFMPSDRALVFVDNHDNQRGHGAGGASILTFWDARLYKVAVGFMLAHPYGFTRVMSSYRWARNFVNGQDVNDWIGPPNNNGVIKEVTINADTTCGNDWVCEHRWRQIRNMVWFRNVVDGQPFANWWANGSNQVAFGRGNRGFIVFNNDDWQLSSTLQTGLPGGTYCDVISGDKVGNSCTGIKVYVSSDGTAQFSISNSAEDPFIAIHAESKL
# Procedure: 2 units* of porcine pancreatic α-amylase in 0.1 ml of 6.4 mM ammonium sulfate solution are added to 0.6 ml of 20 mM phosphate buffer (pH 6.9) containing 10 mM sodium chloride and different amounts of Trestatin. The mixture, after equilibration at 37° C. for 5 min. followed by the addition of 0.5 ml of 4% soluble starch solution, is incubated for 5 min. at 37° C. The reaction is terminated by the addition of 2 ml of dinitrosalicylic acid reagent prepared according to the method of P. Bernfeld. The mixture is heated on a boiling water bath for 5 min. and then diluted with 10 ml of water. Absorbance (A1) of the resulting colored solution is measured at 540 nm, and the inhibition of α-amylase activity can be calculated from the following equation: [formula] A0; absorbance without enzyme A2; absorbance without Trestatin
# *1 unit of the α-amylase is the amount of enzyme which catalyzes under the above conditions without Trestatin the formation of reducing sugars equivalent to 1 μmol of maltose.
# Each of said inhibitory activities was determined by the method mentioned above.
# [16] = system: hyperglycemia induced by cooked rice starch; experiment: Inhibition of hyperglycemia induced by cooked rice starch, mice; type: in vivo; conditions: p.o., dose causing after 20 minutes a 20 percent decrease of hyperglycemia, 2 g/kg cooked rice starch
# Procedure: as §1, §2, §3
# [17] = system: hyperglycemia (hyperinsulinemia) following an oral load of native starch; experiment: Hyperglycemia (hyperinsulinemia) following an oral load of native starch; type: in vivo; conditions: 20 min. after wheat starch
# Procedure: as §4
# g wheat starch/kg or 3.2 g sucrose/kg)]
# [18] = system: Staphylococcus aureus MS9261; experiment: Antimicrobial spectrum, agar-dilution method; type: cell-based
# [19] = system: Staphylococcus aureus Smith; experiment: Antimicrobial spectrum, agar-dilution method; type: cell-based
molecule,measurement,setting,value
C[C@H]1O[C@H](O[C@H]2[C@H](O)[C@@H](O)[C@@H](O[C@H]3[C@H](O)[C@@H](O)[C@@H](O[C@H]4[C@H](O)[C@@H](O)[C@@H](O[C@H]5O[C@H](CO)[C@@H](O)[C@H](O)[C@H]5O)O[C@@H]4CO)O[C@@H]3CO)O[C@@H]2CO)[C@H](O)[C@@H](O)[C@@H]1N[C@H]1C=C(CO)[C@@H](O[C@H]2O[C@H](CO)[C@@H](O[C@H]3O[C@H](C)[C@@H](NC4C=C(CO)[C@@H](O[C@H]5O[C@H](CO)[C@@H](O[C@H]6O[C@H](C)[C@@H](NC7C=C(CO)[C@@H](O)[C@H](O)[C@H]7O)[C@H](O)[C@H]6O)[C@H](O)[C@H]5O)[C@H](O)[C@H]4O)[C@H](O)[C@H]3O)[C@H](O)[C@H]2O)[C@H](O)[C@H]1O (stereo partly drawn) [Trestatin C],Antimicrobial spectrum,[1],> 100 µg/mL
same,Antimicrobial spectrum,E. coli NIHJ SMf,> 100 µg/mL
same,Antimicrobial spectrum,E. coli CF17,> 100 µg/mL
same,Antimicrobial spectrum,Citrobacter,> 100 µg/mL
same,Antimicrobial spectrum,Salmonella paratyphi B,> 100 µg/mL
same,Antimicrobial spectrum,E. coli CF41,> 100 µg/mL
same,Antimicrobial spectrum,[2],> 100 µg/mL
same,pKa',Titration (in water),5.0
same,Antimicrobial spectrum,[3],> 100 µg/mL
same,Antimicrobial spectrum,Shigella flexneri,> 100 µg/mL
same,Solubility in acetone,Solubility in solvents,slightly soluble
same,Solubility in chloroform,Solubility in solvents,insoluble
same,Solubility in dimethylsulfoxide,Solubility in solvents,soluble
same,Solubility in ethanol,Solubility in solvents,slightly soluble
same,Solubility in ethyl acetate,Solubility in solvents,insoluble
same,Solubility in water,Solubility in solvents,easily soluble
same,Antimicrobial spectrum,[4],> 100 µg/mL
same,Antimicrobial spectrum,[5],> 100 µg/mL
same,Antimicrobial spectrum,[6],> 100 µg/mL
same,Antimicrobial spectrum,[7],> 100 µg/mL
same,Antimicrobial spectrum,E. coli K-12 ML1630,> 100 µg/mL
same,Antimicrobial spectrum,E. coli NIHJ STf,> 100 µg/mL
same,Acute toxicity,rats,not observed
same,Antimicrobial spectrum,[8],> 100 µg/mL
same,Antimicrobial spectrum,Candida albicans Yu1200,> 100 µg/mL
same,Antimicrobial spectrum,[9],> 100 µg/mL
same,"Plasma glucose, sucrose - load",[10],85% of carbohydrate primed controls
same,Antimicrobial spectrum,Sarcina lutea ATCC 9341,> 100 µg/mL
same,Antimicrobial spectrum,E. coli NIHJ,> 100 µg/mL
same,Antimicrobial spectrum,[11],> 100 µg/mL
same,Antimicrobial spectrum,[12],> 100 µg/mL
same,Antimicrobial spectrum,Proteus rettgeri,> 100 µg/mL
same,"ED20, inhibition of hyperglycemia induced by cooked rice starch",[13],3.0 mg/kg
same,Antimicrobial spectrum,[14],> 100 µg/mL
same,Inhibitory activities,[15],4.9 × 10^7 IU/g
same,"ED20, inhibition of hyperglycemia induced by cooked rice starch",[16],0.7 mg/kg
same,"Plasma glucose, starch - load",[17]; dose/kg 0.3 mg,71% of carbohydrate primed controls
same,"Plasma insulin, starch - load",[17]; dose/kg 0.3 mg,51% of carbohydrate primed controls
same,"Plasma glucose, starch - load",[17]; dose/kg 1.0 mg,60% of carbohydrate primed controls
same,"Plasma insulin, starch - load",[17]; dose/kg 1.0 mg,51% of carbohydrate primed controls
same,"Plasma glucose, starch - load",[17]; dose/kg 3.0 mg,58% of carbohydrate primed controls
same,"Plasma insulin, starch - load",[17]; dose/kg 3.0 mg,63% of carbohydrate primed controls
same,Antimicrobial spectrum,[18],> 100 µg/mL
same,Antimicrobial spectrum,[19],> 100 µg/mL
C[C@H]1O[C@H](O[C@@H]2[C@H](O)[C@@H](O)[C@@H](O[C@@H]3[C@H](O)[C@@H](O)[C@@H](O[C@@H]4[C@H](O)[C@H](O)[C@@H](O[C@H]5O[C@H](CO)[C@H](O)[C@H](O)[C@H]5O)O[C@@H]4CO)O[C@@H]3CO)O[C@H]2CO)[C@@H](O)[C@@H](O)[C@@H]1N[C@@H]1C=C(CO)[C@@H](O)[C@@H](O)[C@@H]1O (stereo in doubt) [Trestatin B],Antimicrobial spectrum,[1],> 100 µg/mL
same,Antimicrobial spectrum,E. coli NIHJ SMf,> 100 µg/mL
same,Antimicrobial spectrum,E. coli CF17,> 100 µg/mL
same,Antimicrobial spectrum,Citrobacter,> 100 µg/mL
same,Antimicrobial spectrum,Salmonella paratyphi B,> 100 µg/mL
same,Antimicrobial spectrum,E. coli CF41,> 100 µg/mL
same,Antimicrobial spectrum,[2],> 100 µg/mL
same,pKa',Titration (in water),5.0
same,Antimicrobial spectrum,[3],> 100 µg/mL
same,Antimicrobial spectrum,Shigella flexneri,> 100 µg/mL
same,Solubility in acetone,Solubility in solvents,slightly soluble
same,Solubility in chloroform,Solubility in solvents,insoluble
same,Solubility in dimethylsulfoxide,Solubility in solvents,soluble
same,Solubility in ethanol,Solubility in solvents,slightly soluble
same,Solubility in ethyl acetate,Solubility in solvents,insoluble
same,Solubility in water,Solubility in solvents,easily soluble
same,Antimicrobial spectrum,[4],> 100 µg/mL
same,Antimicrobial spectrum,[5],> 100 µg/mL
same,Antimicrobial spectrum,[6],> 100 µg/mL
same,Antimicrobial spectrum,[7],> 100 µg/mL
same,Antimicrobial spectrum,E. coli K-12 ML1630,> 100 µg/mL
same,Antimicrobial spectrum,E. coli NIHJ STf,> 100 µg/mL
same,Acute toxicity,rats,not observed
same,Antimicrobial spectrum,[8],> 100 µg/mL
same,Antimicrobial spectrum,Candida albicans Yu1200,> 100 µg/mL
same,Antimicrobial spectrum,[9],> 100 µg/mL
same,Antimicrobial spectrum,Sarcina lutea ATCC 9341,> 100 µg/mL
same,Antimicrobial spectrum,E. coli NIHJ,> 100 µg/mL
same,Antimicrobial spectrum,[11],> 100 µg/mL
same,Antimicrobial spectrum,[12],> 100 µg/mL
same,Antimicrobial spectrum,Proteus rettgeri,> 100 µg/mL
same,"ED20, inhibition of hyperglycemia induced by cooked rice starch",[13],7.7 mg/kg
same,Antimicrobial spectrum,[14],> 100 µg/mL
same,Inhibitory activities,[15],1.5 × 10^6 IU/g
same,"ED20, inhibition of hyperglycemia induced by cooked rice starch",[16],3.2 mg/kg
same,Antimicrobial spectrum,[18],> 100 µg/mL
same,Antimicrobial spectrum,[19],> 100 µg/mL
Trestatin A dihydrochloride [Trestatin A . HCl],Inhibitory activities,[15],6.3 × 10^7 IU/g
Trestatin B monohydrochloride [Trestatin B . HCl],Inhibitory activities,[15],1.3 × 10^6 IU/g
Trestatin C trihydrochloride [Trestatin C . HCl],Inhibitory activities,[15],4.5 × 10^7 IU/g

# — patent US4273765A, “Amino sugar derivatives containing trehalose” (Hoffmann-La Roche Inc., priority 1978, dated 1981)
